From patent US7011938B2, “Method of measuring platelet activation” (Barts and The London NHS Trust, priority 2000, dated 2006)
Where “and” joins values, the source holds several entries; their conditions need not be identical. Equal values may be shown once. Where a name gives a salt, the structure may show the parent alone.

What was measured:
platelets in whole blood [1] = assay: Assessment of platelet activation on the ADVIA 120 (PLT, MPV, MPC, PCDW, MPM); format: cell-based, human; settings: for Platelet count in blood: CTAD and E/C corrected for dilution; for Platelet counts in blood: Example 3 Table 1, ambient temperature, mean of 7
Experimental: Assessment of platelet activation on the ADVIA 120. Whole blood samples were taken into Vacutainer™ containers (Becton Dickinson) containing either EDTA, CTAD, or a mixture of EDTA and CTAD (E/C). Samples were analysed immediately post-venesection and at timed intervals of 30, 60, 120, and 180 minutes post venesection. Analysis of platelet count (PLT), mean platelet volume (MPV), mean platelet component (MPC) and mean platelet component distributionwidth (PCDW) was performed using the ADVIA 120 Haematology System (Bayer Corporation, Tarrytown, N.Y.) calibrated prior to use with ADVIA TESTpoint Haematology Control reagents. (Bayer Corporation, Tarrytown, N.Y.).
Whole blood samples were taken into Vacutainer™ containers (Becton Dickinson) containing EDTA and mixed with the aforementioned platelet antagonists, or with CTAD (this mixture is referred to as E/C). Samples were analysed as in Example 1.
(§1) Whole blood samples were taken into Vacutainer™ containers that contained either K3EDTA, or CTAD, or a mixture of K3EDTA and CTAD (E/C). For the latter, blood was collected first into K3EDTA and then immediately transferred to a Vacutainer™ containing CTAD. Samples were held at ambient temperature, analysed immediately and at 30, 60, 120, and 180 min after venesection. Analysis of platelet count (PLT), mean platelet volume (MPV) and mean platelet component concentration (MPC) was done using the ADVIA®120 haematology system (Bayer Corporation, Tarrytown, N.Y.) Platelet counts made in blood anticoagulated with CTAD and E/C were corrected for dilution (dilution factors were 1.11 and 1.125 respectively). The system was calibrated and standardised prior to use with ADVIA®-SETpoint Haematology Control and ADVIA® OPTIpoint, respectively (Bayer Corporation). In one series of experiments (n=4) these analyses were performed on blood samples anticoagulated with E/C but held at ambient temperature and at 4° C. to investigate the effect of cooling on platelet activation.

platelets in whole blood [2] = assay: Expression of CD62P on platelets by flow cytometry; format: cell-based, human; settings: for CD62P % expression in blood: Example 1, n=6, mean±se; for CD62P % positive platelets in blood: Example 3, at RT
Experimental: (§2) Measurement of the expression CD62P and the number of leucocyte platelet aggregates (PLAs). Anti-coagulated blood (5 μl) was incubated at room temperature with either FITC CD62P (5 μl) or FITC isotype control (5 μl), or PE CD45 (5 μl) and FITC isotype control (5 μl) or FITC CD42a (5 μl) and PE CD45 (5 μl), in 90 μl of TS for 5 min. Samples were diluted to 1 ml with TS and analysed immediately by flow cytometry.
(§3) Flow cytometry. Blood cells were analysed on a FACScan (Becton Dickinson, Oxford, UK) equipped with CellQuest® software. The flow cytometer was calibrated prior to use with fluorochrome labelled beads (Fluorospheres™, Dako).
For the analysis of CD62P expression data was acquired in real time with a primary gate set on a dual parameter histogram of forward light scatter (FLS) logarithmic scale (abscissa) and side light scatter (SLS) logarithmic scale (ordinate). This facilitated identification of the platelets within the blood and was confirmed by the analysis of CD42a expression (FIG. 1). Background fluorescence was assessed with platelets labelled with the FITC conjugated isotype control antibody. Cursors were set in a single parameter histogram of frequency (ordinate) and green fluorescence intensity (abscissa), so that less than 1% of the platelets stained positively with the control antibody. Changes in CD62P expression (green fluorescence logarithmic scale), together with those of FLS and SLS, were then recorded on the gated platelets.

[3] = tested on: platelet leucocyte aggregates in whole blood; assay: Platelet-leucocyte aggregates (PLAs) by flow cytometry; format: cell-based, human
Experimental: as §2, §3
For the analysis of platelet-leucocyte aggregates (FIG. 2), cells were analysed in a histogram of side scatter (logarithmic scale ordinate) and orange fluorescence (logarithmic scale abscissa). Leucocytes identified by their positive staining with PE CD45 were gated to a histogram of green fluorescence (logarithmic scale ordinate) and orange fluorescence (logarithmic scale abscissa). Events that were both green and orange were considered platelet leucocyte aggregates and recorded as a percentage of a total of 10,000 gated leucocytes.
As Example 1. Platelet-leucocyte aggregates could then be gated to a histogram (C) of side scatter (logarithmic scale ordinate) and orange fluorescence (logarithmic scale abscissa) to identify, by their characteristic SLS, which leucocytes were forming PLAs.

whole blood = assay: Comparison of ADVIA 120 haematology results in anticoagulated blood; format: cell-based, human; settings: Table 2, Mean (+/-S.E.) at 30 minutes, 7 control samples
Experimental: as §1

platelets [4] = settings: room temperature; on average; Threatte et al., 1984; cited from earlier work
platelets [5] = settings: over a period of 1–2 h; impedance procedures; depends on sodium citrate concentration; cited from earlier work
[6] = Example 1, 30 min, n=6, mean±se
[7] = Example 1, 60 min, n=6, mean±se
[8] = Example 1, 120 min, n=6, mean±se
[9] = Example 1, 180 min, n=6, mean±se

For O=C(O)CN(CCN(CC(=O)O)CC(=O)O)CC(=O)O [EDTA, Ethylenediaminetetra-acetic acid], the “Platelet count in blood” value (platelets in whole blood [1]; Example 1, 0 min, n=6) was 235±12, the MPC in blood (platelets in whole blood [1]; Example 1, 0 min, n=6, mean±se) was 28.0 ± 0.87 g/dL and the MPV in blood (platelets in whole blood [1]; Example 1, 0 min, n=6, mean±se) was 8.0 ± 0.37 fL. For the same compound, the PCDW in blood (platelets in whole blood [1]; Example 1, 0 min, n=6, mean±se) was 5.85 ± 0.28 g/dL, the “Platelet count in blood” value (platelets in whole blood [1]; Example 1, 30 min, n=6) was 246 ± 14 and the MPC in blood (platelets in whole blood [1]; [6]) was 29.1 ± 0.52 g/dL. For the same compound, the MPV in blood (platelets in whole blood [1]; [6]) was 7.7 ± 0.27 fL, the PCDW in blood (platelets in whole blood [1]; [6]) was 5.00 ± 0.09 g/dL and the “Platelet count in blood” value (platelets in whole blood [1]; Example 1, 60 min, n=6) was 249 ± 14. The MPC in blood (platelets in whole blood [1]; [7]) was 28.8 ± 0.42 g/dL, the MPV in blood (platelets in whole blood [1]; [7]) was 7.7 ± 0.24 fL and the PCDW in blood (platelets in whole blood [1]; [7]) was 5.00 ± 0.12 g/dL. For the same compound, the “Platelet count in blood” value (platelets in whole blood [1]; Example 1, 120 min, n=6) was 247 ± 14, the MPC in blood (platelets in whole blood [1]; [8]) was 27.9 ± 0.48 g/dL and the MPV in blood (platelets in whole blood [1]; [8]) was 8.0 ± 0.30 fL. The PCDW in blood (platelets in whole blood [1]; [8]) was 4.80 ± 0.11 g/dL, the “Platelet count in blood” value (platelets in whole blood [1]; Example 1, 180 min, n=6) was 246 ± 5 and the MPC in blood (platelets in whole blood [1]; [9]) was 27.1 ± 0.36 g/dL. The MPV in blood (platelets in whole blood [1]; [9]) was 8.1 ± 0.21 fL, the PCDW in blood (platelets in whole blood [1]; [9]) was 4.80 ± 0.08 g/dL and 4.80 ± 0.06 g/dL and the MPC in blood (platelets in whole blood [1]; Example 3, at RT, 0 min) was 2.8e-12 ± 8.7e-14 g/dL. It also gave an MPV in blood (platelets in whole blood [1]; Example 3, at RT, 0 min) of 8.0 ± 0.37 fL, an MPC in blood (platelets in whole blood [1]; Example 3, at RT, 30 min) of 2.91e-12 ± 5.2e-14 g/dL and an MPV in blood (platelets in whole blood [1]; Example 3, at RT, 30 min) of 7.7 ± 0.27 fL. It also gave an MPC in blood (platelets in whole blood [1]; Example 3, at RT, 60 min) of 2.88e-12 ± 4.2e-14 g/dL, an MPV in blood (platelets in whole blood [1]; Example 3, at RT, 60 min) of 7.7 ± 0.24 fL and an MPC in blood (platelets in whole blood [1]; Example 3, at RT, 120 min) of 2.79e-12 ± 4.8e-14 g/dL. For the same compound, the MPV in blood (platelets in whole blood [1]; Example 3, at RT, 120 min) was 8.0 ± 0.30 fL, the MPC in blood (platelets in whole blood [1]; Example 3, at RT, 180 min) was 2.71e-12 ± 3.6e-14 g/dL and the MPV in blood (platelets in whole blood [1]; Example 3, at RT, 180 min) was 8.1 ± 0.21 fL. The “Platelet counts in blood” value (platelets in whole blood [1]; 0 min) was 235 ± 13, the “Platelet counts in blood” value (platelets in whole blood [1]; 30 min) was 246 ± 14 and the “Platelet counts in blood” value (platelets in whole blood [1]; 180 min) was 246 ± 5. The “CD62P % expression in blood” value (platelets in whole blood [2]; 0 min post venesection) was 1.10 ± 0.24%, the “CD62P % expression in blood” value (platelets in whole blood [2]; 30 min) was 3.71 ± .04% and the “CD62P % expression in blood” value (platelets in whole blood [2]; 60 min) was 11.27 ± .60%. The “CD62P % expression in blood” value (platelets in whole blood [2]; 120 min) was 18.94 ± 2.53%, the “CD62P % expression in blood” value (platelets in whole blood [2]; 180 min) was 23.05±2.79% and the “CD62P % positive platelets in blood” value (platelets in whole blood [2]; 0 min) was 1.10 ± 0.24%. The “CD62P % positive platelets in blood” value (platelets in whole blood [2]; 0 min, listed as K3EDTA) was 1.10±0.61%, the “CD62P % positive platelets in blood” value (platelets in whole blood [2]; 30 min) was 3.71 ± 1.04% and the “CD62P % positive platelets in blood” value (platelets in whole blood [2]; 60 min) was 11.27 ± 1.60%. The “CD62P % positive platelets in blood” value (platelets in whole blood [2]; 120 min) was 18.94 ± 2.53%, the “CD62P % positive platelets in blood” value (platelets in whole blood [2]; 180 min) was 23.05 ± 2.79% and the “CD62P % positive platelets in blood” value (platelets in whole blood [2]; 180 min, listed as K3EDTA) was 23.05±1.54%. The “% platelet leucocyte aggregates in blood” value ([3]; Example 1, 0 min, n=6, mean±se) was 3.50±0.50%, the “% platelet leucocyte aggregates in blood” value [3, 6] was 4.16 ± 0.86% and the “% platelet leucocyte aggregates in blood” value [3, 7] was 8.87 ± 1.54%. The “% platelet leucocyte aggregates in blood” value [3, 8] was 8.50 ± 1.44%, the “% platelet leucocyte aggregates in blood” value [3, 9] was 13.50±2.41% and the “% platelet leucocyte aggregates in blood” value ([3]; Example 3, at RT, 0 min) was 3.30 ± 0.5%. The “% platelet leucocyte aggregates in blood” value ([3]; Example 3, at RT, 0 min, listed as K3EDTA) was 3.50±0.71%, the “% platelet leucocyte aggregates in blood” value ([3]; Example 3, at RT, 30 min) was 4.16 ± 0.86% and the “% platelet leucocyte aggregates in blood” value ([3]; Example 3, at RT, 60 min) was 8.87 ± 1.54%. For the same compound, the “% platelet leucocyte aggregates in blood” value ([3]; Example 3, at RT, 120 min) was 8.50 ± .44%, the “% platelet leucocyte aggregates in blood” value ([3]; Example 3, at RT, 180 min) was 13.50 ± 1.74% and the “% platelet leucocyte aggregates in blood” value ([3]; Example 3, at RT, 180 min, listed as K3EDTA) was 13.50±1.74%. The MPC (whole blood) was 29.1 (0.52) g/dL, the MPV (whole blood) was 7.7 (0.27) fL and the PCDW (whole blood) was 5.00 (0.09) g/dL. For the same compound, the PCT (whole blood) was 0.19 (0.01) %, the PDW (whole blood) was 58.9 (3.24) % and the PLT (whole blood; CTAD ×1.11, E/C ×1.125) was 246 (14) 109/L. For the same compound, the “MPV greater than in corresponding citrate anticoagulated blood” value (platelets [4]) was 23%.
For O=C(O)CC(O)(CC(=O)O)C(=O)O [citrate, trisodium citrate], the “increase in platelet volume” value (platelets [5]) is given as 3–10%.
